The results in this text go back to EP1763509B1, “ALPHA-HELICAL MIMETICS” (THE WALTER AND ELIZA HALL INSTITUTE OF MEDICAL RESEARCH, priority 2004, dated 2006).

Each structure is given as a SMILES string.

The target of test [1] is T1, Bcl-wΔ29 (Homo sapiens, UniProt Q92843).
T1 construct: GST tagged Bclw ΔC29 protein
T1 sequence (Q92843 1-164 limits assumed): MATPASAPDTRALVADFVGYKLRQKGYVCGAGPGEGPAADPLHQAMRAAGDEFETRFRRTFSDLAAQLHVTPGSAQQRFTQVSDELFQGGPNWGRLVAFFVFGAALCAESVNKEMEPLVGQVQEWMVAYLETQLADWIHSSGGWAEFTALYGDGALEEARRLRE
Briefly: Alphascreen GST competition binding assay, benzoylurea compounds vs Biotinylated Bim BH3-26 peptide on GST tagged Bclw ΔC29 protein. To be noted: GST tagged Bclw ΔC29 protein 0.05 nM, Biotinylated Bim BH3-26 peptide 3.0 nM, 4 hours at room temperature; values marked a tested in a separate experiment; n.b. = not binding in the assay conditions.

Test [2] has as its target T2, Bcl-xLΔ25 (Homo sapiens, UniProt Q07817).
T2 construct: GST tagged Bcl-xL ΔC25 protein
Briefly: Alphascreen GST competition binding assay, benzoylurea compounds vs Biotinylated Bim BH3-26 peptide on GST tagged Bcl-xL ΔC25 protein. The following applies: GST tagged Bcl-xL ΔC25 protein 0.6 nM, Biotinylated Bim BH3-26 peptide 5.0 nM, 4 hours at room temperature; n.b. = not binding in the assay conditions. (In Alpha technology, singlet oxygen from a donor bead excites a nearby acceptor bead.)

Test [3] has as its target Mcl-1 (Homo sapiens, UniProt Q07820). Briefly: Alphascreen GST competition binding assay, benzoylurea compounds vs Biotinylated Bak BH3 peptide on GST tagged Mcl-1 protein. To be noted: GST tagged Mcl-1 protein 0.4 nM, Biotinylated Bak BH3 peptide 4.0 nM, 4 hours at room temperature; n.b. = not binding in the assay conditions.

T2 sequence (Q07817 1-208 limits assumed, stated change not applied): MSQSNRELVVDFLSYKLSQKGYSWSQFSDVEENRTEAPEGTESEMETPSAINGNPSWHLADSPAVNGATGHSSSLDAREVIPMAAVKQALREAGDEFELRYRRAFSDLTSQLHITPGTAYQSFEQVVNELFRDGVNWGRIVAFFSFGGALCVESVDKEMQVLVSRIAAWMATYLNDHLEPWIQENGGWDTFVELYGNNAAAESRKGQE
Sequence of Mcl-1 (Q07820 whole entry, species assumed): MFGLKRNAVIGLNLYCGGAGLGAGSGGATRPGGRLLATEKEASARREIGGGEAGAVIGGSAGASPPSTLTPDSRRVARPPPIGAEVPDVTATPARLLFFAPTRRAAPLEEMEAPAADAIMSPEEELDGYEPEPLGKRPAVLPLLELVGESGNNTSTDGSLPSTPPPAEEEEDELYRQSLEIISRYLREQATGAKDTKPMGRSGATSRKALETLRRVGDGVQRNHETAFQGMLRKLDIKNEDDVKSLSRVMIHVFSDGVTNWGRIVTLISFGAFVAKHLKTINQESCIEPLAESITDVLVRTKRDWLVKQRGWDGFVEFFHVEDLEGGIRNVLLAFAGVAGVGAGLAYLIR

The term IC50 denotes the concentration at which inhibition is half-maximal. Low readings indicate greater potency in that assay, high ones weaker potency in that assay. Regarding `CCCN(C(=O)N[C@@H](CSCc1ccccc1-c1ccccc1)C(=O)O)C(=O)c1cccc(C#Cc2ccccc2)c1` [(96)], the IC50 was 52 µM in test [1], 153 µM in test [2] and 133 µM in test [3].
On to `CCCSC[C@H](NC(=O)N(CCC)C(=O)c1cccc(-c2ccccc2Cl)c1)C(=O)O` [(97)], for which the figures for the IC50 in test [1], in test [2] and in test [3] were 68 µM, 199 µM and 264 µM, respectively.
Consider `CCCN(C(=O)N[C@@H](CSCC(C)C)C(=O)O)C(=O)c1cccc(-c2ccccc2Cl)c1` [(98)], for which the concentration for half-maximal inhibition (IC50) in test [1] was found to be 32 µM; in test [2], 93 µM; in test [3], 107 µM.
With `CCCN(C(=O)N[C@@H](CSC(C)C)C(=O)O)C(=O)c1cccc(-c2ccccc2Cl)c1` [(99)], the IC50 in test [1] worked out at 60 µM; in test [2] it was 163 µM; in test [3], 168 µM.
In the same order, the values of `CCCN(C(=O)N[C@@H](CSc1ccccc1)C(=O)O)C(=O)c1cccc(-c2ccccc2Cl)c1` [(100)] are 18 µM, 48 µM and 52 µM.
Consider `CCCN(C(=O)N[C@@H](CSCCc1ccccc1)C(=O)O)C(=O)c1cccc(-c2ccccc2Cl)c1` [(101)], for which the IC50 in test [1] turned out to be 19 µM; in test [2], 42 µM; in test [3], 55 µM.
`CCCN(C(=O)N[C@@H](CSCCCc1ccccc1)C(=O)O)C(=O)c1cccc(-c2ccccc2Cl)c1` [(102)]: the concentration for half-maximal inhibition (IC50) turned out to be 18 µM in test [1], 50 µM in test [2] and 51 µM in test [3].
For the molecule `CCCN(C(=O)N[C@@H](CSCc1ccccc1-c1ccccc1)C(=O)O)C(=O)c1cccc(-c2ccccc2Cl)c1` [(103)], the IC50 was 18 µM in test [1], 53 µM in test [2] and 36 µM in test [3].
On to `CCCN(C(=O)Cc1cccc(-c2ccccc2)c1)C(=O)N[C@@H](CSCc1ccccc1)C(=O)O` [(104)], for which the IC50 in test [1] was 205 µM; in test [2] it was 187 µM; in test [3] it was 267 µM.
For `CCCN(C(=O)Cc1ccccc1)C(=O)N[C@@H](CSCc1ccccc1)C(=O)O` [(105)], the half-inhibitory concentration (IC50) in test [1] came to 71 µM; in test [2] it was 183 µM; in test [3], 164 µM.
On to `CC(C)Cc1cccc(C(=O)N(Cc2ccccc2)C(=O)N[C@@H](CSCc2ccccc2)C(=O)O)c1` [(107)], for which the concentration for half-maximal inhibition (IC50) in test [1] stood at 37 µM; in test [2], 70 µM; in test [3], 73 µM.
As for `CC(C)Cc1cccc(C(=O)N(CCc2ccccc2)C(=O)N[C@@H](CSCc2ccccc2)C(=O)O)c1` [(108)], the IC50 in test [1] was determined as 49 µM; in test [2] it was 87 µM; in test [3], 72 µM.
For the molecule `CC(C)CCc1cccc(C(=O)N(Cc2ccccc2)C(=O)N[C@@H](CSCc2ccccc2)C(=O)O)c1` [(109)], the concentration for half-maximal inhibition (IC50) is 29 µM in test [1], 81 µM in test [2] and 65 µM in test [3].
With `CC(C)CCc1cccc(C(=O)N(CCc2ccccc2)C(=O)N[C@@H](CSCc2ccccc2)C(=O)O)c1` [(110)], the half-maximal inhibitory concentration (IC50) in test [1] was 37 µM; in test [2] it was 85 µM; in test [3], 64 µM.
As to `CCCCSC[C@H](NC(=O)N(Cc1ccccc1)C(=O)c1cccc(CC(C)C)c1)C(=O)O` [(111)], the IC50 in test [1] was determined as 36 µM; in test [2] it was 115 µM; in test [3], 86 µM.
In the case of `CCCCSC[C@H](NC(=O)N(CCc1ccccc1)C(=O)c1cccc(CC(C)C)c1)C(=O)O` [(112)], the IC50 in test [1] turned out to be 40 µM; in test [2] it was 119 µM; in test [3] it was 112 µM.
On to `CCCCSC[C@H](NC(=O)N(Cc1ccccc1)C(=O)c1cccc(CCC(C)C)c1)C(=O)O` [(113)], for which the IC50 is 28 µM in test [1], 94 µM in test [2] and 65 µM in test [3].
Turning to `CCCCSC[C@H](NC(=O)N(CCc1ccccc1)C(=O)c1cccc(CCC(C)C)c1)C(=O)O` [(114)], the results for the half-inhibitory concentration (IC50) in test [1], in test [2] and in test [3] were 32 µM, 85 µM and 58 µM, respectively.
